Assay results published in ChEMBL document CHEMBL2440027, “Further SAR studies on bicyclic basic merbarone analogues as potent antiproliferative agents” (Bioorg Med Chem, 2013).

Tests used:
NCI-H322M = experiment: Growth inhibition of human NCI-H322M cells assessed as cell growth at 10 uM after 48 hrs by sulforhodamine B assay relative to control; type: functional; details: read-out: Activity
Malme-3M = experiment: Growth inhibition of human MALME-3M cells assessed as cell growth at 10 uM after 48 hrs by sulforhodamine B assay relative to control; type: functional; details: read-out: Activity
SW-620 = experiment: Growth inhibition of human SW620 cells assessed as cell growth at 10 uM after 48 hrs by sulforhodamine B assay relative to control; type: functional; details: SW-620, 48 h, read-out: Activity
786-0 = experiment: Growth inhibition of human 786-0 cells after 48 hrs by sulforhodamine B assay; type: functional; details: 786-0, 48 h
MCF7 = experiment: Growth inhibition of human MCF7 cells after 48 hrs by sulforhodamine B assay; type: functional; details: MCF7, 48 h; for CC50: read-out: LC50 (the source's name)
SF-295 [1] = experiment: Growth inhibition of human SF295 cells after 48 hrs by sulforhodamine B assay; type: functional; details: SF-295, 48 h; for CC50: read-out: LC50 (the source's name)
DU-145 [2] = experiment: Growth inhibition of human DU145 cells after 48 hrs by sulforhodamine B assay; type: functional; details: DU-145, 48 h; for CC50: read-out: LC50 (the source's name)
SF-539 = experiment: Growth inhibition of human SF539 cells assessed as cell growth at 10 uM after 48 hrs by sulforhodamine B assay relative to control; type: functional; details: SF-539, 48 h, read-out: Activity
DU-145 [3] = experiment: Growth inhibition of human DU145 cells assessed as cell growth at 10 uM after 48 hrs by sulforhodamine B assay relative to control; type: functional; details: DU-145, 48 h, read-out: Activity
UO-31 [4] = experiment: Growth inhibition of human UO31 cells after 48 hrs by sulforhodamine B assay; type: functional; details: UO-31, 48 h
MDA-MB-231 = experiment: Growth inhibition of human MDA-MB-231 cells assessed as cell growth at 10 uM after 48 hrs by sulforhodamine B assay relative to control; type: functional; details: MDA-MB-231, 48 h, read-out: Activity
TK-10 = experiment: Growth inhibition of human TK10 cells after 48 hrs by sulforhodamine B assay; type: functional; details: TK-10, 48 h; for CC50: read-out: LC50 (the source's name)
NCI-H226 [5] = experiment: Growth inhibition of human NCI-H226 cells after 48 hrs by sulforhodamine B assay; type: functional; details: NCI-H226, 48 h
UACC-62 [6] = experiment: Growth inhibition of human UACC62 cells assessed as cell growth at 10 uM after 48 hrs by sulforhodamine B assay relative to control; type: functional; details: UACC-62, 48 h, read-out: Activity
OVCAR-5 [7] = experiment: Growth inhibition of human OVCAR5 cells after 48 hrs by sulforhodamine B assay; type: functional; details: OVCAR-5, 48 h; for CC50: read-out: LC50 (the source's name)
MOLT-4 = experiment: Growth inhibition of human MOLT4 cells after 48 hrs by sulforhodamine B assay; type: functional; details: MOLT-4, 48 h
SK-MEL-5 = experiment: Growth inhibition of human SK-MEL-5 cells assessed as cell growth at 10 uM after 48 hrs by sulforhodamine B assay relative to control; type: functional; details: SK-MEL-5, 48 h, read-out: Activity
[8] = Growth inhibition of human NCI-ADR-RES cells assessed as cell growth at 10 uM after 48 hrs by sulforhodamine B assay relative to control; type: functional; details: read-out: Activity
T47D [9] = experiment: Growth inhibition of human T47D cells after 48 hrs by sulforhodamine B assay; type: functional
NCI-H23 = experiment: Growth inhibition of human NCI-H23 cells assessed as cell growth at 10 uM after 48 hrs by sulforhodamine B assay relative to control; type: functional; details: NCI-H23, 48 h, read-out: Activity
MDA-MB-435 = experiment: Growth inhibition of human MDA-MB-435 cells after 48 hrs by sulforhodamine B assay; type: functional; details: MDA-MB-435, 48 h; for CC50: read-out: LC50 (the source's name)
MT4 = experiment: Cytotoxicity against human MT4 cells; type: functional, cell-based
K562 = experiment: Growth inhibition of human K562 cells assessed as cell growth at 10 uM after 48 hrs by sulforhodamine B assay relative to control; type: functional; details: K562, 48 h, read-out: Activity
[10] = Growth inhibition of human EKVX cells after 48 hrs by sulforhodamine B assay; type: functional; details: for CC50: read-out: LC50 (the source's name)
CCRF-CEM = experiment: Growth inhibition of human CCRF-CEM cells after 48 hrs by sulforhodamine B assay; type: functional
NCI-H226 [11] = experiment: Growth inhibition of human NCI-H226 cells assessed as cell growth at 10 uM after 48 hrs by sulforhodamine B assay relative to control; type: functional; details: NCI-H226, 48 h, read-out: Activity
UO-31 [12] = experiment: Growth inhibition of human UO31 cells assessed as cell growth at 10 uM after 48 hrs by sulforhodamine B assay relative to control; type: functional; details: UO-31, 48 h, read-out: Activity
OVCAR-5 [13] = experiment: Growth inhibition of human OVCAR5 cells assessed as cell growth at 10 uM after 48 hrs by sulforhodamine B assay relative to control; type: functional; details: OVCAR-5, 48 h, read-out: Activity
A498 = experiment: Growth inhibition of human A498 cells after 48 hrs by sulforhodamine B assay; type: functional; details: A498, 48 h; for CC50: read-out: LC50 (the source's name)
OVCAR-4 = experiment: Growth inhibition of human OVCAR4 cells assessed as cell growth at 10 uM after 48 hrs by sulforhodamine B assay relative to control; type: functional; details: OVCAR-4, 48 h, read-out: Activity
A549 = experiment: Growth inhibition of human A549/ATCC cells assessed as cell growth at 10 uM after 48 hrs by sulforhodamine B assay relative to control; type: functional; details: A549, 48 h, read-out: Activity
UACC-62 [14] = experiment: Growth inhibition of human UACC62 cells after 48 hrs by sulforhodamine B assay; type: functional; details: UACC-62, 48 h; for CC50: read-out: LC50 (the source's name)
T47D [15] = experiment: Growth inhibition of human T47D cells assessed as cell growth at 10 uM after 48 hrs by sulforhodamine B assay relative to control; type: functional; details: read-out: Activity
SNB-75 = experiment: Growth inhibition of human SNB75 cells after 48 hrs by sulforhodamine B assay; type: functional; details: SNB-75, 48 h
SF-295 [16] = experiment: Growth inhibition of human SF295 cells assessed as cell growth at 10 uM after 48 hrs by sulforhodamine B assay relative to control; type: functional; details: SF-295, 48 h, read-out: Activity

Compound: CN(C)CCNc1nc2c(c(=N)n1-c1ccccc1)c(=S)n(-c1ccccc1)c(=S)n2-c1ccccc1
- growth at 10 µM (NCI-H322M): 58.5%
- growth at 10 µM (Malme-3M): -89.5%
- growth at 10 µM (SW-620): -59.1%
- GI50 (786-0): 1.4 µM
- LC50 (786-0): 21.4 µM
- TGI (786-0): 4.3 µM
- GI50 (MCF7): 2.2 µM
- TGI (MCF7): 10.9 µM
- CC50 (MCF7): 48.8 µM
- GI50 (SF-295 [1]): 2.9 µM
- TGI (SF-295 [1]): 8.3 µM
- CC50 (SF-295 [1]): 51.1 µM
- GI50 (DU-145 [2]): 5.3 µM
- TGI (DU-145 [2]): 18.8 µM
- CC50 (DU-145 [2]): 48.8 µM
- growth at 10 µM (SF-539): -86.9%
- growth at 10 µM (DU-145 [3]): 45%
- GI50 (UO-31 [4]): 1.6 µM
- LC50 (UO-31 [4]): 9.6 µM
- TGI (UO-31 [4]): 3.9 µM
- growth at 10 µM (MDA-MB-231): -13%
- GI50 (TK-10): 3.5 µM
- TGI (TK-10): 14.3 µM
- CC50 (TK-10): 48.8 µM
- GI50 (NCI-H226 [5]): 11.6 µM
- LC50 (NCI-H226 [5]): 59.5 µM
- TGI (NCI-H226 [5]): 26.3 µM
- growth at 10 µM (UACC-62 [6]): -90.3%
- GI50 (OVCAR-5 [7]): 12.1 µM
- TGI (OVCAR-5 [7]): 29.5 µM
- CC50 (OVCAR-5 [7]): 72.1 µM
- GI50 (MOLT-4): 1.8 µM
- LC50 (MOLT-4): 17.2 µM
- TGI (MOLT-4): 4.7 µM
- growth at 10 µM (SK-MEL-5): -98.8%
- growth at 10 µM [8]: 58.8%
- GI50 (T47D [9]): 2.1 µM
- LC50 (T47D [9]): 30.5 µM
- TGI (T47D [9]): 5.4 µM
- growth at 10 µM (NCI-H23): 67.6%
- GI50 (MDA-MB-435): 1.9 µM
- TGI (MDA-MB-435): 4.7 µM
- CC50 (MDA-MB-435): 22.1 µM
- IC50 (MT4): 8.4 µM
- growth at 10 µM (K562): -11.4%
- GI50 [10]: 12.1 µM
- TGI [10]: 32.2 µM
- CC50 [10]: 85.8 µM
- GI50 (CCRF-CEM): 1.4 µM
- LC50 (CCRF-CEM): 9.2 µM
- TGI (CCRF-CEM): 3.6 µM
- growth at 10 µM (NCI-H226 [11]): 82.3%
- growth at 10 µM (UO-31 [12]): 3.1%
- growth at 10 µM (OVCAR-5 [13]): 63.1%
- GI50 (A498): 2.4 µM
- TGI (A498): 6.8 µM
- CC50 (A498): 28.1 µM
- growth at 10 µM (OVCAR-4): 41.7%
- growth at 10 µM (A549): 35.4%
- GI50 (UACC-62 [14]): 1.8 µM
- TGI (UACC-62 [14]): 3.5 µM
- CC50 (UACC-62 [14]): 6.6 µM
- growth at 10 µM (T47D [15]): -19.4%
- GI50 (SNB-75): 2.4 µM
- LC50 (SNB-75): 31.9 µM
- TGI (SNB-75): 7.5 µM
- growth at 10 µM (SF-295 [16]): -61.5%

Compound: CCCCN(CCCC)CCCNc1nc2c(c(=N)n1-c1ccccc1)c(=S)n(-c1ccccc1)c(=S)n2-c1ccccc1
- growth at 10 µM (NCI-H322M): -57.8%
- growth at 10 µM (Malme-3M): -91.5%
- growth at 10 µM (SW-620): -100%
- GI50 (786-0): 0.2 µM
- LC50 (786-0): 0.8 µM
- TGI (786-0): 0.4 µM
- GI50 (MCF7): 0.3 µM
- TGI (MCF7): 1.3 µM
- CC50 (MCF7): 3.6 µM
- GI50 (SF-295 [1]): 1.2 µM
- TGI (SF-295 [1]): 2.7 µM
- CC50 (SF-295 [1]): 5.8 µM
- GI50 (DU-145 [2]): 1.1 µM
- TGI (DU-145 [2]): 2.3 µM
- CC50 (DU-145 [2]): 4.8 µM
- growth at 10 µM (SF-539): -97.7%
- growth at 10 µM (DU-145 [3]): -100%
- GI50 (UO-31 [4]): 0.2 µM
- LC50 (UO-31 [4]): 1.1 µM
- TGI (UO-31 [4]): 0.5 µM
- growth at 10 µM (MDA-MB-231): -89.1%
- GI50 (TK-10): 1.3 µM
- TGI (TK-10): 2.7 µM
- CC50 (TK-10): 5.6 µM
- GI50 (NCI-H226 [5]): 1.4 µM
- LC50 (NCI-H226 [5]): 5.5 µM
- TGI (NCI-H226 [5]): 2.8 µM
- growth at 10 µM (UACC-62 [6]): -99.4%
- GI50 (OVCAR-5 [7]): 1.4 µM
- TGI (OVCAR-5 [7]): 2.8 µM
- CC50 (OVCAR-5 [7]): 5.5 µM
- GI50 (MOLT-4): 0.3 µM
- growth at 10 µM (SK-MEL-5): -100%
- growth at 10 µM [8]: -71.1%
- GI50 (T47D [9]): 0.2 µM
- LC50 (T47D [9]): 8.3 µM
- TGI (T47D [9]): 0.5 µM
- growth at 10 µM (NCI-H23): -56.3%
- GI50 (MDA-MB-435): 0.2 µM
- TGI (MDA-MB-435): 0.5 µM
- CC50 (MDA-MB-435): 1.5 µM
- IC50 (MT4): 1.6 µM
- growth at 10 µM (K562): -90.3%
- GI50 [10]: 0.4 µM
- TGI [10]: 1.9 µM
- CC50 [10]: 4.7 µM
- GI50 (CCRF-CEM): 0.1 µM
- LC50 (CCRF-CEM): 0.6 µM
- TGI (CCRF-CEM): 0.3 µM
- growth at 10 µM (NCI-H226 [11]): -82.5%
- growth at 10 µM (UO-31 [12]): -80.9%
- growth at 10 µM (OVCAR-5 [13]): -60.2%
- GI50 (A498): 1.1 µM
- TGI (A498): 2.4 µM
- CC50 (A498): 5.2 µM
- growth at 10 µM (OVCAR-4): -82%
- growth at 10 µM (A549): -38.4%
- GI50 (UACC-62 [14]): 0.3 µM
- TGI (UACC-62 [14]): 1.2 µM
- CC50 (UACC-62 [14]): 3.5 µM
- growth at 10 µM (T47D [15]): -62.1%
- GI50 (SNB-75): 0.4 µM
- LC50 (SNB-75): 4.1 µM
- TGI (SNB-75): 1.6 µM
- growth at 10 µM (SF-295 [16]): -100%
